Data set [1] in a line: Loss of tail withdrawal reflex (LOTWR) in rats, single intravenous injection, dose escalation for efficacy and severe adverse reactions. Conditions: rat, in vivo, single intravenous injection, minimum dose resulting in serious adverse reactions / minimum effective dose, class symbol, read-out: The safety therapeutic index. Type of data set: in vivo, SD rats. The procedure:
(§1) Using the loss of tail withdrawal reflex (LOTWR) in rats as an indicator, the potent analgesic effect of the compounds according to the present invention was evaluated.
(§2) 1.1 Experimental animals: Adult male SD rats weighing between 220-300 g were selected for the experiment. The rats were housed in sawdust-bedded cages with a temperature of 25+1°C, humidity ranging from 40% to 60%, and a 12-hour light/12-hour dark cycle. Each cage contained no more than 5 rats, with free access to water and food.
(§3) • (1) The compound of the present invention, along with the positive control drug remifentanil and the negative control (vehicle), were administered in fixed volumes. A dose escalation approach was employed to determine the minimum effective dose at which the compound of the present invention produces potent analgesic effects, as well as the minimum dose at which severe adverse reactions first appear. • (2) LOTWR lasting for 30 seconds was used as the criterion for generating potent analgesic effects. During the experiment, drugs were administered via the tail vein of rats, with a dosage volume of 0.6 mL per rat and a dosage rate of 0.02 mL/s. Subsequently, an alligator clip was applied at a distance of 1 cm from the base of the rat's tail, clamping once longitudinally and once transversely before being left in place. Meanwhile, the distal end of the alligator clip was continuously oscillated (30 times/min) to continuously generate stimulation. […] When all results were "no LOTWR" after 10 minutes of testing (5 trials), the test was stopped and recorded as "ineffective." • (3) All compounds would undergo a dose escalation for efficacy evaluation, starting from 1 mg/kg (due to the high potency of remifentanil, the lowest dose was set at 1 µg/kg), followed by 5 mg/kg, 10 mg/kg, 20 mg/kg, and so on (increasing by 20 mg/kg increments after 20 mg/kg). The dose escalation would be stopped when rats show signs of death, and the lowest effective dose and the lowest dose at which severe adverse reactions occur would be recorded throughout the process. In this study, severe adverse reactions are defined as apnea, generalized tonic rigidity, convulsions, opisthotonus, seizures, etc.
(§4) 1.3 Evaluation indicators: the minimum effective dose; the minimum dose resulting in serious adverse reactions; the safety therapeutic index = "the minimum dose resulting in serious adverse reactions" / "the minimum effective dose".

The subject of data set [2] is rats. The data set is described as above. The conditions noted are these: Rattus norvegicus, single intravenous injection (tail vein), LOTWR lasting for 30 seconds as criterion, class symbol, read-out: The minimum effective dose. The format is in vivo, SD rats. The procedure: as §1, §2, §3, §4

The values that follow come from EP4786458A1, “ANALGESIC COMPOUND, PREPARATION METHOD THEREFOR, AND USE THEREOF” (West China Hospital, Sichuan University, priority 2023, dated 2025).

Some results are limits rather than exact numbers.

`Cc1ccc(NCC(=O)OCc2ccsc2)c(N(C)C)c1` [Example 1]: the selectivity ratio in data set [1] is > 4. The minimal effective dose in data set [2] is ≤ 10 mg/kg.

With `Cc1ccc(NCC(=O)OCc2cccs2)c(N(C)C)c1` [Example 2], the selectivity ratio in data set [1] is 2 to 4. Further, in data set [2], the minimal effective dose is > 30 mg/kg.

Turning to `CN(C)c1ccccc1NCC(=O)OCc1cccs1` [Example 4], the selectivity ratio in data set [1] was > 4. Moreover, in data set [2], the minimal effective dose was ≤ 10 mg/kg.

Take `CN(C)c1cc(F)ccc1NCC(=O)OCc1cccs1` [Example 5]: in data set [1], the selectivity ratio was ≤ 2. Also, the minimal effective dose in data set [2] was in the range of 20 to 30 mg/kg.

Consider `Cc1ccc(OCC(=O)OCc2cccs2)c(N(C)C)c1` [Example 6], for which the selectivity ratio in data set [1] fell in the range of 2 to 4. Further, the minimal effective dose in data set [2] was ≤ 10 mg/kg.

In the case of `Cc1ccc(NCC(=O)OCc2ccco2)c(N(C)C)c1` [Example 7], the selectivity ratio in data set [1] is 2 to 4. The minimal effective dose in data set [2] was in the range of 20 to 30 mg/kg.

In the case of `Cc1ccc(NCC(=O)OCc2cccs2)cc1N(C)C` [Example 8], the selectivity ratio in data set [1] is > 4. In addition, the minimal effective dose in data set [2] fell in the range of 10 to 20 mg/kg.

`Cc1ccc(NCC(=O)NCc2ccno2)c(N(C)C)c1` [Example 9]: the selectivity ratio in data set [1] is > 4. For the same compound, in data set [2], the minimal effective dose was ≤ 10 mg/kg.

As for `Cc1ccc(OCC(=O)NCc2cccs2)c(N(C)C)c1` [Example 10], the selectivity ratio in data set [1] is > 4. For the same compound, in data set [2], the minimal effective dose was ≤ 10 mg/kg.

Consider `Cc1ccc(NCC(=O)NCc2ccco2)c(N(C)C)c1` [Example 11], for which, in data set [1], the selectivity ratio was > 4. The minimal effective dose in data set [2] was ≤ 10 mg/kg.

Consider `Cc1ccc(OCC(=O)NCc2ccco2)c(N(C)C)c1` [Example 12], for which, in data set [1], the selectivity ratio was > 4. The minimal effective dose in data set [2] is 10 to 20 mg/kg.

Turning to `CN(C)c1cccc(NCC(=O)OCc2cccs2)c1` [Example 13], the selectivity ratio in data set [1] is ≤ 2. Besides, in data set [2], the minimal effective dose is > 30 mg/kg.

Regarding `Cc1ccc(SCC(=O)OCc2cccs2)c(N(C)C)c1` [Example 14], the selectivity ratio in data set [1] lay in the range of 2 to 4. In data set [2], the minimal effective dose was > 30 mg/kg.

With `CN(C)c1ccccc1NCC(=O)OCc1ccsc1` [Example 15], the selectivity ratio in data set [1] lay in the range of 2 to 4. In addition, the minimal effective dose in data set [2] was > 30 mg/kg.

As to `Cc1ccc(NCC(=O)NCc2ccoc2)c(N(C)C)c1` [Example 16], in data set [1], the selectivity ratio was ≤ 2. In addition, the minimal effective dose in data set [2] was > 30 mg/kg.

With `Cc1ccc(NCC(=O)NCc2ccns2)c(N(C)C)c1` [Example 17], the selectivity ratio in data set [1] was > 4. The minimal effective dose in data set [2] lay in the range of 10 to 20 mg/kg.

For the compound `Cc1ccc(NCC(=O)OCc2ccoc2)c(N(C)C)c1` [Example 18], the selectivity ratio in data set [1] was ≤ 2. Further, the minimal effective dose in data set [2] was > 30 mg/kg.

On to `Cc1ccc(NCC(=O)NCc2cnsc2)c(N(C)C)c1` [Example 19], for which the selectivity ratio in data set [1] was 2 to 4. In addition, in data set [2], the minimal effective dose is > 30 mg/kg.

On to `Cc1ccc(SCC(=O)OCc2ccco2)c(N(C)C)c1` [Example 20], for which the selectivity ratio in data set [1] was ≤ 2. Also, the minimal effective dose in data set [2] is > 30 mg/kg.

In the case of `Cc1ccc(NCC(=O)NCc2ccco2)cc1N(C)C` [Example 21], the selectivity ratio in data set [1] is ≤ 2. The minimal effective dose in data set [2] was > 30 mg/kg.

Regarding `Cc1ccc(NCC(=O)NCc2ncc[nH]2)c(N(C)C)c1` [Example 22], the selectivity ratio in data set [1] is ≤ 2. Besides, in data set [2], the minimal effective dose was > 30 mg/kg.

On to `Cc1ccc(OCC(=O)OCc2ccco2)c(N(C)C)c1` [Example 23], for which, in data set [1], the selectivity ratio was ≤ 2. Further, in data set [2], the minimal effective dose is > 30 mg/kg.

For `Cc1ccc(OCC(=O)OCc2cccs2)cc1N(C)C` [Example 24], the selectivity ratio in data set [1] is ≤ 2. Further, the minimal effective dose in data set [2] was > 30 mg/kg.

For the compound `Cc1ccc(NCC(=O)NCc2ccns2)cc1N(C)C` [Example 25], the selectivity ratio in data set [1] fell in the range of 2 to 4. The minimal effective dose in data set [2] was in the range of 10 to 20 mg/kg.

For the compound `Cc1ccc(NCC(=O)NCc2ccccc2)c(N(C)C)c1` [Example 27], the selectivity ratio in data set [1] is ≤ 2. In data set [2], the minimal effective dose was ≤ 10 mg/kg.

For the compound `Cc1cc(C)cc(CNC(=O)CNc2ccc(C)cc2N(C)C)c1` [Example 28], the selectivity ratio in data set [1] was ≤ 2. The minimal effective dose in data set [2] lay within 20 to 30 mg/kg.

Regarding `Cc1ccc(NCC(=O)NCc2cccs2)cc1N(C)C` [Example 29], the selectivity ratio in data set [1] was ≤ 2. In addition, in data set [2], the minimal effective dose was > 30 mg/kg.

On to `Cc1ccc(NCC(=O)OCc2ccoc2)cc1N(C)C` [Example 30], for which the selectivity ratio in data set [1] lay in the range of 2 to 4. In data set [2], the minimal effective dose is > 30 mg/kg.

Turning to `Cc1ccc(NCC(=O)NCc2cc(C)nn2C)c(N(C)C)c1` [Example 31], the selectivity ratio in data set [1] fell in the range of 2 to 4. Also, in data set [2], the minimal effective dose fell in the range of 10 to 20 mg/kg.

With `Cc1ccc(NCC(=O)OCc2cc(C)nn2C)c(N(C)C)c1` [Example 32], in data set [1], the selectivity ratio is > 4. For the same compound, the minimal effective dose in data set [2] was ≤ 10 mg/kg.

Consider `Cc1ccc(NCC(=O)NCc2ccnn2C)c(N(C)C)c1` [Example 33], for which the selectivity ratio in data set [1] is ≤ 2. The minimal effective dose in data set [2] was > 30 mg/kg.

Turning to `Cc1ccc(NCC(=O)OCc2ccnn2C)c(N(C)C)c1` [Example 34], the selectivity ratio in data set [1] was > 4. Further, the minimal effective dose in data set [2] is ≤ 10 mg/kg.

As for `Cc1ccc(NCC(=O)OCc2ccnn2C)cc1N(C)C` [Example 35], the selectivity ratio in data set [1] was > 4. In addition, in data set [2], the minimal effective dose is ≤ 10 mg/kg.

As for `Cc1ccc(OCC(=O)NCc2ccsc2)c(N(C)C)c1` [Example 36], in data set [1], the selectivity ratio fell in the range of 2 to 4. The minimal effective dose in data set [2] lay in the range of 10 to 20 mg/kg.

`Cc1cc(COC(=O)CNc2ccc(C)c(N(C)C)c2)n(C)n1` [Example 37]: in data set [1], the selectivity ratio is > 4. Besides, the minimal effective dose in data set [2] is ≤ 10 mg/kg.

With `Cc1ccc(NCC(=O)OCc2ccsc2)cc1N(C)C` [Example 38], the selectivity ratio in data set [1] is ≤ 2. In data set [2], the minimal effective dose is > 30 mg/kg.

Turning to `Cc1ccc(NCC(=O)OCc2ccco2)cc1N(C)C` [Example 39], the selectivity ratio in data set [1] was > 4. In addition, the minimal effective dose in data set [2] was 10 to 20 mg/kg.

Take `Cc1ccc(NCC(=O)OCc2ccno2)c(N(C)C)c1` [Example 40]: in data set [1], the selectivity ratio was ≤ 2. The minimal effective dose in data set [2] was > 30 mg/kg.
